Laboratory results as given in US10479784B2, “Substituted pyrazin-2-amines as inhibitors of ATR kinase” (Vertex Pharmaceuticals Incorporated, priority 2008, dated 2019).
Like-named read-outs stand apart in the source and are kept apart here.

What was measured:
intracellular ATR = intracellular ATR (Homo sapiens (Human), UniProt Q13535); assay: Cellular ATR Inhibition Assay (H2AX phosphorylation in hydroxyurea treated HT29 cells); type: cell-based; conditions: 2 mM hydroxyurea, phosphorylated H2AX-positive nuclei
Sequence of intracellular ATR (Q13535 whole entry): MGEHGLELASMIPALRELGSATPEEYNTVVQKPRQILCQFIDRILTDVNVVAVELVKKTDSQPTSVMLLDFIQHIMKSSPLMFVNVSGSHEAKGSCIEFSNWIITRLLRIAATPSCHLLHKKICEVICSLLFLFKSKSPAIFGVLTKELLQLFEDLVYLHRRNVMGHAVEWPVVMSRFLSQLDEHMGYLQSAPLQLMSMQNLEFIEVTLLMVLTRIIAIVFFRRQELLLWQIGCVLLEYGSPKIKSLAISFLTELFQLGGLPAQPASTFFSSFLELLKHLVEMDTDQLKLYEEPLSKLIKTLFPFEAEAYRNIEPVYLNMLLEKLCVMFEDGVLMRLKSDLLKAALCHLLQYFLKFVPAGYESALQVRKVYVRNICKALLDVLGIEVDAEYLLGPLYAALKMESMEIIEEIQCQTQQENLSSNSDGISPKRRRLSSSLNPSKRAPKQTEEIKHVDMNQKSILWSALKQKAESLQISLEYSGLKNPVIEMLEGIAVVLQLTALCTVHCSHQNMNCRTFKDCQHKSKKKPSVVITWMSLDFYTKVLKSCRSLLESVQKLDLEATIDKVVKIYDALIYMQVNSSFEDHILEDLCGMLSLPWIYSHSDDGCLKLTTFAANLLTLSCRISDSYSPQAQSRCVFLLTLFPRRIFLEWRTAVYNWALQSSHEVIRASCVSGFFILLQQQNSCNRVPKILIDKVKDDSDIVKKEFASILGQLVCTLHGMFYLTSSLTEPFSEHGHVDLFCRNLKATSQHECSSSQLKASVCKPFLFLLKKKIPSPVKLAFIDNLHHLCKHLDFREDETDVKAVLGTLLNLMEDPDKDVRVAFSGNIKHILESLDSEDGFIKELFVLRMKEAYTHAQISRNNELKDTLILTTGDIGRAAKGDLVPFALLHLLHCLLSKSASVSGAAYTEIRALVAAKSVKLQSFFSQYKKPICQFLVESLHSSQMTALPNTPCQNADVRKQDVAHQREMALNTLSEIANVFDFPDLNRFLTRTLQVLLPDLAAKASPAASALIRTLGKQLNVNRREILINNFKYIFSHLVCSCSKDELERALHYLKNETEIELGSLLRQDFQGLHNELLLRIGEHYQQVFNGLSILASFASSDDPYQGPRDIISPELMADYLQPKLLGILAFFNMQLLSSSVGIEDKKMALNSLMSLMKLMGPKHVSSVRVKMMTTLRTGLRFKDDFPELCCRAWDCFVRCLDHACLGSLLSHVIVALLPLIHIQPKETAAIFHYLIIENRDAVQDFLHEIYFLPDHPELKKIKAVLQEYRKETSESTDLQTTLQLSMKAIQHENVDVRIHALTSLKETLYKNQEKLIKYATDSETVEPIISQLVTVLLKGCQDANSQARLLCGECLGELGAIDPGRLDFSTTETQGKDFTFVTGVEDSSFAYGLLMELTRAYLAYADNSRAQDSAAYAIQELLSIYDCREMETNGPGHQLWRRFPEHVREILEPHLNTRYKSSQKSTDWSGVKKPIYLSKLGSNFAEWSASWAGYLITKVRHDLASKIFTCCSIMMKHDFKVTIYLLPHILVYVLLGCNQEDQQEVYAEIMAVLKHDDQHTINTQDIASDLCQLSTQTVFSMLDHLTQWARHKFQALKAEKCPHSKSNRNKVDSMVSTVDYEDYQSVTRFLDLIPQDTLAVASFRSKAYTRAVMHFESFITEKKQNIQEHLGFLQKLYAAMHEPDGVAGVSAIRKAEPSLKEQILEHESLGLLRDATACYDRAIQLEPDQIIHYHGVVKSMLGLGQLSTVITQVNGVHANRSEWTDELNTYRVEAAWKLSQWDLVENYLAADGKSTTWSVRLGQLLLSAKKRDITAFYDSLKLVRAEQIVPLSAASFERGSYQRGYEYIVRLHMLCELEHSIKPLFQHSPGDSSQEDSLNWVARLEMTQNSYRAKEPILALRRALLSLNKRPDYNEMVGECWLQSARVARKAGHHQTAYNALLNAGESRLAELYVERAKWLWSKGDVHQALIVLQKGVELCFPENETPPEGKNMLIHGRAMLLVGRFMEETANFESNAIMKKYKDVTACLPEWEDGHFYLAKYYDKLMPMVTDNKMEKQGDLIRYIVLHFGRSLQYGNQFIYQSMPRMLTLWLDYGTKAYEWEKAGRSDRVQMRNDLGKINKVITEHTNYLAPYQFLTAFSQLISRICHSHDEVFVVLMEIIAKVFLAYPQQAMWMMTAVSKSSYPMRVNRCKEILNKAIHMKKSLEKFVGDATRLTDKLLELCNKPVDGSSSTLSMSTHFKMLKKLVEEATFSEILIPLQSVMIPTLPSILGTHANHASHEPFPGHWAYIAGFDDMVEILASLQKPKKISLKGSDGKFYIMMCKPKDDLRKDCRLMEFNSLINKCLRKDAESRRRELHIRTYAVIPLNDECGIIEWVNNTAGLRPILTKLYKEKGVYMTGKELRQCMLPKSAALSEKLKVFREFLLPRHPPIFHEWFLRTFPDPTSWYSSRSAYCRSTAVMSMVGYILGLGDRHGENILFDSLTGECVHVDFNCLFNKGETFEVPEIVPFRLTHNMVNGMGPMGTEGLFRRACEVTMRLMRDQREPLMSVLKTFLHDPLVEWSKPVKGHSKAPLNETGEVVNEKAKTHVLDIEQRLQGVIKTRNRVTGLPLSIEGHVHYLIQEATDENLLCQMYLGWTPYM
Sequence of intracellular ATR (Q8WXE1 whole entry partner): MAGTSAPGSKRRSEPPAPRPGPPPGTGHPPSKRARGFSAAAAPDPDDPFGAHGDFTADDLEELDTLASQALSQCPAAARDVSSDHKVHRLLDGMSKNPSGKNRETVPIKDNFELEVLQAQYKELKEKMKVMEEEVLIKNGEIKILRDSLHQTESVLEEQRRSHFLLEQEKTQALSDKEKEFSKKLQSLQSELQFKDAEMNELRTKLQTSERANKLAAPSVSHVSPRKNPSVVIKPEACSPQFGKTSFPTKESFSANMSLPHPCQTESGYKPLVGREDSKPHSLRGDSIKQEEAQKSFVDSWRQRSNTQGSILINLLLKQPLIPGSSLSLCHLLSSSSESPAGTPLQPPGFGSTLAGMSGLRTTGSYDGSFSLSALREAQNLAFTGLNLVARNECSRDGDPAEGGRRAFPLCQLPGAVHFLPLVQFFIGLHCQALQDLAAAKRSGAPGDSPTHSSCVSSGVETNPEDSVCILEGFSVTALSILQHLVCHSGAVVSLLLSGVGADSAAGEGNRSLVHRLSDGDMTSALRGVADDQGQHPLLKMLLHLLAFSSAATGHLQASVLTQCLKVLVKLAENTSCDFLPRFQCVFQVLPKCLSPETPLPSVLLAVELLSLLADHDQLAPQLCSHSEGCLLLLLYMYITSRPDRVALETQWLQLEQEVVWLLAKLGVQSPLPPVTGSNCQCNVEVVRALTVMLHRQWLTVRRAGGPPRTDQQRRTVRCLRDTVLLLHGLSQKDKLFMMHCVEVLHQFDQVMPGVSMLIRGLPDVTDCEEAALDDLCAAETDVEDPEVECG
Experimental: Compounds can be screened for their ability to inhibit intracellular ATR using an immunofluorescence microscopy assay to detect phosphorylation of the ATR substrate histone H2AX in hydroxyurea treated cells. HT29 cells are plated at 14,000 cells per well in 96-well black imaging plates (BD 353219) in McCoy's 5 A media (Sigma M8403) supplemented with 10% foetal bovine serum (JRH Biosciences 12003), Penicillin/Streptomycin solution diluted 1:100 (Sigma P7539), and 2 mM L-glutamine (Sigma G7513), and allowed to adhere overnight at 37° C. in 5% CO2. Compounds are then added to the cell media from a final concentration of 25 μM in 3-fold serial dilutions and the cells are incubated at 37° C. in 5% CO2. After 15 min, hydroxyurea (Sigma H8627) is added to a final concentration of 2 mM.
After 45 min of treatment with hydroxyurea, the cells are washed in PBS, fixed for 10 min in 4% formaldehyde diluted in PBS (Polysciences Inc 18814), washed in 0.2% Tween-20 in PBS (wash buffer), and permeabilised for 10 min in 0.5% Triton X-100 in PBS, all at room temperature. The cells are then washed once in wash buffer and blocked for 30 min at room temperature in 10% goat serum (Sigma G9023) diluted in wash buffer (block buffer). […]
Cells are imaged for Alexa Fluor 488 and Hoechst intensity using the BD Pathway 855 Bioimager and Attovision software (BD Biosciences, Version 1.6/855) to quantify phosphorylated H2AX Ser139 and DNA staining, respectively. The percentage of phosphorylated H2AX-positive nuclei in a montage of 9 images at 20× magnification is then calculated for each well using BD Image Data Explorer software (BD Biosciences Version 2.2.15). […] The percentage of H2AX positive nuclei is finally plotted against concentration for each compound and IC50s for intracellular ATR inhibition are determined using Prism software(GraphPad Prism version 3.0cx for Macintosh, GraphPad Software, San Diego Calif., USA).

[1] = test system: HCT116 colorectal cancer cells; assay: HCT116 cell viability (MTS), compound alone; type: cell-based; conditions: Homo sapiens, HCT-116, 96 h, read-out: HTC116 (MTS) IC50
Experimental: (§1) Compounds were screened for their ability to sensitize HCT116 colorectal cancer cells to Cisplatin using a 96 h cell viability (MTS) assay. […] Compounds and Cisplatin were then both added simultaneously to the cell media in 2-fold serial dilutions from a top final concentration of 10 μM as a full matrix of concentrations in a final cell volume of 200 μl, and the cells were then incubated at 37° C. in 5% CO2. After 96 h, 40 μl of MTS reagent (Promega G358a) was added to each well and the cells were incubated for 1 h at 37° C. in 5% CO2.

[2] = test system: HCT116 colorectal cancer cells; assay: Cisplatin Sensitization Assay (96 h MTS cell viability); type: cell-based; conditions: concentration of compound required to reduce the IC50 of Cisplatin alone by at least 3-fold
Experimental: as §1

full-length ATR = full-length ATR (Homo sapiens (Human), UniProt Q13535); assay: ATR Inhibition Assay (radioactive-phosphate incorporation); type: biochemical
Sequence of full-length ATR (Q13535 whole entry): as the sequence (Q13535 whole entry) above
Procedure, shortened: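 Ki(app) was derived by non-linear regression of background-corrected initial rates of 33P incorporation into an 800 μM target peptide, read by phosphocellulose filter scintillation counting. Reaction conditions: 5 nM full-length ATR, 10 μM [γ-33P]ATP, pH 7.5 Tris buffer with MgCl2 and DTT, 25 °C, 10-min preincubation, 24 h run.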

[3] = 5 nM full-length ATR, 10 μM ATP, Ki(app), read-out: ATR Inhibition Assay Ki

Compound | Ki (full-length ATR; read-out: ATR Ki) [nM] | other results
CS(=O)(=O)c1ccc(-c2cnc(N)c(C(=O)Nc3ccccc3)n2)cc1 [Compound I-82, 3-amino-6-(4-(methylsulfonyl)phenyl)-N-phenylpyrazine-2-carboxamide] | 10 to 100 | IC50 (intracellular ATR): 1000 to 20000 nM; IC50 [1]: 1000 to 20000 nM; Synergy with Cisplatin (uM) [2]: ++ (Compounds with an IC50 or Ki value >100 nM but ≤1 uM are marked with “++.”); Ki (full-length ATR; [3]): ≤ 100 nM
CNCc1ccc(-c2nnc(-c3nc(-c4ccc(S(=O)(=O)C(C)C)cc4)cnc3N)o2)cc1 [IA-159, 5-(4-isopropylsulfonylphenyl)-3-[5-[4-(methylaminomethyl)phenyl]-1,3,4-oxadiazol-2-yl]pyrazin-2-amine] | ≤ 10 | IC50 (intracellular ATR): ≤ 100 nM; IC50 [1]: 100 to 1000 nM; Synergy with Cisplatin (uM) [2]: +++ (Compounds with an IC50 or Ki value of ≤100 nM are marked with “+++.”); Ki (full-length ATR; [3]): ≤ 100 nM
CC(O)CNCc1ccc(-c2cc(-c3nc(-c4ccc(S(=O)(=O)C(C)C)cc4)cnc3N)on2)cc1 (stereo not shown) [IIA-11, 1-(4-(5-(3-amino-6-(4-(isopropylsulfonyl)phenyl)pyrazin-2-yl)isoxazol-3-yl)benzylamino)propan-2-ol] | ≤ 10 | IC50 (intracellular ATR): ≤ 100 nM; IC50 [1]: 100 to 1000 nM; Synergy with Cisplatin (uM) [2]: +++ (Compounds with an IC50 or Ki value of ≤100 nM are marked with “+++.”); Ki (full-length ATR; [3]): ≤ 100 nM
Nc1ncc(-c2ccc(C(=O)NCCN3CCCC3)cc2)nc1-c1nc2ccccc2[nH]1 [III-6, 4-(5-amino-6-(1H-benzo[d]imidazol-2-yl)pyrazin-2-yl)-N-(2-(pyrrolidin-1-yl)ethyl)benzamide] | 10 to 100 | –
Nc1ncc(-c2cccnc2)nc1-c1nnc(-c2cccs2)[nH]1 [IIIA-4, 5-(pyridin-3-yl)-3-(5-(thiophen-2-yl)-4H-1,2,4-triazol-3-yl)pyrazin-2-amine] | 10 to 100 | –
CN(C)C(=O)c1ccc(-c2cnc(N)c(-c3nnc(-c4ccccc4)s3)n2)c(C#N)c1 [IVA-1, 4-[5-amino-6-(5-phenyl-1,3,4-thiadiazol-2-yl)pyrazin-2-yl]-3-cyano-N,N-dimethyl-benzamide] | ≤ 10 | –
N#Cc1cc(C(=O)N2CCCNCC2)ccc1-c1cnc(N)c(-c2nnc(-c3ccccc3)s2)n1 [IVA-2, 2-[5-amino-6-(5-phenyl-1,3,4-thiadiazol-2-yl)pyrazin-2-yl]-5-(1,4-diazepane-1-carbonyl)benzonitrile] | ≤ 10 | –
CN(C)C(=O)c1ccc(-c2cnc(N)c(-c3nnc(Nc4ccccc4C#N)s3)n2)cc1 [IVA-3, 4-[5-amino-6-[5-(2-cyanoanilino)-1,3,4-thiadiazol-2-yl]pyrazin-2-yl]-N,N-dimethyl-benzamide] | 100 to 5000 | –
COc1ncccc1NC(=O)c1nc(-c2ccc(S(C)(=O)=O)cc2)cnc1N [VII-1] | 10 to 100 | –
Cc1cc(NC(=O)c2nc(-c3ccc(S(C)(=O)=O)cc3)cnc2N)ccn1 [VII-2] | 10 to 100 | –
Cc1cc(NC(=O)c2nc(-c3ccc(S(C)(=O)=O)cc3)cnc2N)n(C)n1 [VII-3] | 100 to 5000 | –
CCc1ncccc1NC(=O)c1nc(-c2ccc(S(C)(=O)=O)cc2)cnc1N [VII-4] | 10 to 100 | –
Cc1ncccc1NC(=O)c1nc(-c2ccc(S(C)(=O)=O)cc2)cnc1N [VII-5] | 10 to 100 | –
CS(=O)(=O)c1ccc(-c2cnc(N)c(C(=O)Nc3ccccn3)n2)cc1 [VII-6] | 10 to 100 | –
CS(=O)(=O)c1ccc(-c2cnc(N)c(C(=O)Nc3ncns3)n2)cc1 [VII-7] | 10 to 100 | –
Cc1cnc(NC(=O)c2nc(-c3ccc(S(C)(=O)=O)cc3)cnc2N)s1 [VII-8] | 10 to 100 | –
COc1ccncc1NC(=O)c1nc(-c2ccc(S(C)(=O)=O)cc2)cnc1N [VII-9] | ≤ 10 | –
CNCc1ccc(NC(=O)c2nc(-c3ccc(S(C)(=O)=O)cc3)cnc2N)cc1 [VII-10] | 100 to 5000 | –
CNCc1ccc(NC(=O)c2nc(-c3ccc(S(=O)(=O)C(C)C)cc3)cnc2N)cc1 [VII-11] | 10 to 100 | –
CNCc1cccc(NC(=O)c2nc(-c3ccc(S(=O)(=O)C(C)C)cc3)cnc2N)c1 [VII-12] | ≤ 10 | –
CNCc1cccc(NC(=O)c2nc(-c3ccc(S(C)(=O)=O)cc3)cnc2N)c1 [VII-13] | 10 to 100 | –
(R)-3-amino-N-phenyl-6-(4-(2-(pyrrolidin-1-ylmethyl)pyrrolidine-1-carbonyl)phenyl)pyrazine-2-carboxamide [Compound I-42] | 100 to 5000 | –
